According to patent publication US8410310B2, “Trypsin-like serine protease inhibitors, and their preparation and use” (The Medicines Company (Leipzig) GmbH, priority 2006, dated 2013):
Where two headings read alike, the source gives them in different places.

Experiments:
Format in all cases: biochemical
[1] = target: Xa (Homo sapiens, UniProt P00742); experiment: Determination of inhibition constants for Xa
Description: (§1) The inhibitory effect for the individual enzymes was determined in analogy to a previously disclosed method (Stürzebecher et al., 1997).
(§2) For zero order kinetics, the reaction was stopped after 20 min by adding 25 μl of acetic acid (50% v/v), and the absorption at 405 nm was determined using a Microplate Reader (Multiscan Ascent, from Thermo). In the case of pseudo-first order kinetics, the reaction rates in the equilibrium state were ascertained by recording the reaction kinetics. The Ki values were ascertained either in accordance with Dixon (1953) by linear regression using a computer program or by parameter fitting in accordance with the rate equation for competitive inhibition. The Ki values are the average of at least two determinations.

[2] = target: Thrombin (Homo sapiens, UniProt P00734); experiment: Determination of inhibition constants for thrombin
Description: as §1, §2

[3] = target: plasmin (Homo sapiens, UniProt P00747); experiment: Determination of inhibition constants for plasmin; parameters: purchased Calbiochem
plasmin, sequence (P00747 581-810 limits assumed): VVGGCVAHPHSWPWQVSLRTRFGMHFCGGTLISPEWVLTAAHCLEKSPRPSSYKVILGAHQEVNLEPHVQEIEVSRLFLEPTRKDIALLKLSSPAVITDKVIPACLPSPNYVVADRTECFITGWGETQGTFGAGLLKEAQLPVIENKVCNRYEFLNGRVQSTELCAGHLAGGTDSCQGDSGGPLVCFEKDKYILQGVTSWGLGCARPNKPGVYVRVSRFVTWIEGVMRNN
plasmin, sequence (P00747 97-580 partner limits assumed): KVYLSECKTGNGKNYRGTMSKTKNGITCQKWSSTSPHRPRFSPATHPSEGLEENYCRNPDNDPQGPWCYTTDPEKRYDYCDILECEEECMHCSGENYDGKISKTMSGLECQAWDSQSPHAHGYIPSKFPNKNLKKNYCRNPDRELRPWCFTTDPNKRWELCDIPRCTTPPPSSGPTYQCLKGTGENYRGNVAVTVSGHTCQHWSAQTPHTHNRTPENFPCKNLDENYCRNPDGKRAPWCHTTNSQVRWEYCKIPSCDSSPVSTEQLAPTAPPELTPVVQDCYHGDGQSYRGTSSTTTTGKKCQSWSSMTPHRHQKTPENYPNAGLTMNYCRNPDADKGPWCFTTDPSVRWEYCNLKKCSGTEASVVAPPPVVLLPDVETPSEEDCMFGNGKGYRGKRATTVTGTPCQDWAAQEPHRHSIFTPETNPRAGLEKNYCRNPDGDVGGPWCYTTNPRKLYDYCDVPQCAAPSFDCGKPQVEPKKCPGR
Description: as §1, §2

[4] = target: plasma kallikrein (Homo sapiens, UniProt P03952); experiment: Determination of inhibition constants for PK; parameters: purchased Enzyme Research Lab. / Enzyme Research Laboratories
plasma kallikrein, sequence (P03952 391-638 limits assumed): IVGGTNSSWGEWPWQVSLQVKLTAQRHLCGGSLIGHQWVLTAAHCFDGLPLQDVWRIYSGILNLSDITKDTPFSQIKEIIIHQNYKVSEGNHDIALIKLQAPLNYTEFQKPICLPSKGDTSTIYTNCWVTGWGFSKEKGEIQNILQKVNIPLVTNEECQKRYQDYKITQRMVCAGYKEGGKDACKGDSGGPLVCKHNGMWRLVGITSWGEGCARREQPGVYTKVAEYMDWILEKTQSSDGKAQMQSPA
plasma kallikrein, sequence (P03952 20-390 partner limits assumed): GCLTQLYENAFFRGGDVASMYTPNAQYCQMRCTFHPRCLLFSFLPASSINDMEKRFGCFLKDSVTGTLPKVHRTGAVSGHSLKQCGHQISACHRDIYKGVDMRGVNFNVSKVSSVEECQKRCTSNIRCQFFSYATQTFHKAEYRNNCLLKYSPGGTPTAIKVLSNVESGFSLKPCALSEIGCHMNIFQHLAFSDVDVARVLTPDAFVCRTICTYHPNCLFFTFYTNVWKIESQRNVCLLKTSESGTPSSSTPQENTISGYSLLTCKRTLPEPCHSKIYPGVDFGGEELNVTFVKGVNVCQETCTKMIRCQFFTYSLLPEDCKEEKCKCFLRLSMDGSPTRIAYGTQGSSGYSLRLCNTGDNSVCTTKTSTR
Description: as §1, §2

[5] = 25° C., substrate Chromozym PL, pH 8.0, read-out: Plasmin [Ki]
[6] = 25° C., substrate S2302, pH 8.0, read-out: PK [Ki]
[7] = summary of results, read-out: Ki value of the plasma kallikrein inhibition

Xa, sequence (P00742 235-488 limits assumed): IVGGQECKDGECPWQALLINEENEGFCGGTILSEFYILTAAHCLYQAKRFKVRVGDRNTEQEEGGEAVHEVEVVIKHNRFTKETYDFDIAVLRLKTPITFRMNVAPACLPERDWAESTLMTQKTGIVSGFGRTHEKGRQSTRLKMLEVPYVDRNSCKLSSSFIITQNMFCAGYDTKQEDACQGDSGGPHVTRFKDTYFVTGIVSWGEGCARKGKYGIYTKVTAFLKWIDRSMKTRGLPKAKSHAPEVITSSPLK
Xa, sequence (P00742 41-179 limits assumed): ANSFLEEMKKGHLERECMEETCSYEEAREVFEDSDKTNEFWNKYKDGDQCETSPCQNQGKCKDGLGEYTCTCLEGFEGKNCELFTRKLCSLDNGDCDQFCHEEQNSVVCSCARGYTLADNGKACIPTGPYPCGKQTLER

| Compound | Ki [1] | Ki [2] | Ki [3, 5] | Ki [4, 6] | Ki [4, 7] | Ki ([3]; summary of results, read-out: Ki value of the plasmin inhibition) |
| --- | --- | --- | --- | --- | --- | --- |
| N=C(N)c1ccc(CNC(=O)[C@H](CCc2ccccc2)NC(=O)[C@@H](CCc2ccc(O)cc2)NS(=O)(=O)Cc2ccccc2)cc1 [compound 27] | < 10 nM | < 1000 nM | < 10 nM | < 10 nM | < 1 nM |  |
| COc1ccc(CCC[C@@H](NS(=O)(=O)Cc2ccccc2)C(=O)N[C@@H](Cc2cccc(CN)c2)C(=O)NCc2ccc(C(=N)N)cc2)cc1 [compound 10] | < 100 nM | < 1000 nM | < 10 nM | < 10 nM |  |  |
| N=C(N)c1ccc(CNC(=O)[C@H](Cc2cccc(CN)c2)NC(=O)[C@@H](Cc2ccc3ccccc3c2)NS(=O)(=O)Cc2ccc(C(=O)O)cc2)cc1 [compound 19] | < 1000 nM | < 1000 nM | < 10 nM | < 10 nM |  |  |
| N=C(N)c1ccc(CNC(=O)[C@H](CCc2ccncc2)NC(=O)[C@@H](CCCc2ccccc2)NS(=O)(=O)Cc2cccc(C(=O)O)c2)cc1 [compound 40] | < 1000 nM | < 100 nM | < 10 nM | < 10 nM | < 1 nM |  |
| CC(C)(C)c1ccc(C[C@@H](NS(=O)(=O)Cc2ccccc2)C(=O)N[C@@H](Cc2cccc(CN)c2)C(=O)NCc2ccc(C(=N)N)cc2)cc1 [compound 13] | < 100 nM | < 1000 nM | < 100 nM | < 10 nM |  | < 5 nM |
| N=C(N)c1ccc(CNC(=O)[C@H](Cc2cccc(CN)c2)NC(=O)[C@@H](CC2CCCCC2)NS(=O)(=O)Cc2ccccc2)cc1 [compound 20] | < 100 nM | < 1000 nM | < 10 nM | < 10 nM |  |  |
| N=C(N)c1ccc(CNC(=O)[C@H](Cc2cccc(CN)c2)NC(=O)[C@@H](Cc2ccc3ccccc3c2)NS(=O)(=O)Cc2cccc(C(=O)O)c2)cc1 [compound 18] | < 100 nM | > 1000 nM | < 10 nM | < 10 nM |  |  |
| N=C(N)c1ccc(CNC(=O)[C@H](Cc2ccc(CN)cc2)NC(=O)[C@@H](CCCc2ccccc2)NS(=O)(=O)Cc2ccccc2)cc1 [compound 28] | < 1000 nM | < 1000 nM | < 10 nM | < 10 nM |  |  |
| N=C(N)c1ccc(CNC(=O)[C@H](Cc2ccc(CN)cc2)NC(=O)[C@@H](CCCc2ccccc2)NS(=O)(=O)Cc2cccc(C(=O)O)c2)cc1 [compound 30] | < 1000 nM | > 1000 nM | < 10 nM | < 10 nM |  |  |
| N=C(N)c1ccc(CNC(=O)[C@H](CCc2ccc(CN)cc2)NC(=O)[C@@H](CCc2ccc(O)cc2)NS(=O)(=O)Cc2ccccc2)cc1 [compound 26] | < 10 nM | < 1000 nM | < 10 nM | < 10 nM |  |  |
| N=C(N)c1ccc(CNC(=O)[C@H](CCc2ccccc2)NC(=O)[C@@H](CCCc2ccccc2)NS(=O)(=O)Cc2ccccc2)cc1 [compound 34] | < 1000 nM | < 100 nM | < 10 nM | < 10 nM |  |  |
| N=C(N)c1ccc(CNC(=O)[C@H](CCc2cc[n+]([O-])cc2)NC(=O)[C@@H](CCCc2ccccc2)NS(=O)(=O)Cc2ccccc2)cc1 [compound 41] | < 1000 nM | < 100 nM | < 10 nM | < 10 nM |  |  |
| N=C(N)c1ccc(CNC(=O)[C@H](CCc2ccncc2)NC(=O)[C@@H](CCc2ccc(O)cc2)NS(=O)(=O)Cc2ccccc2)cc1 [compound 47] | < 10 nM | < 10 nM | < 10 nM | < 10 nM |  |  |
| N=C(N)c1ccc(CNC(=O)[C@H](Cc2ccc(CN)cc2)NC(=O)[C@@H](CCCc2ccccc2)NS(=O)(=O)Cc2ccc(C(=O)O)cc2)cc1 [compound 29] | < 1000 nM | < 1000 nM | < 10 nM | < 10 nM | < 1 nM |  |
| N=C(N)c1ccc(CNC(=O)[C@H](Cc2c[nH]cn2)NC(=O)[C@@H](CCCc2ccccc2)NS(=O)(=O)Cc2ccccc2)cc1 [compound 32] | < 1000 nM | < 100 nM | < 10 nM | < 100 nM |  |  |

Next, values leading:

| Ki [1] | Ki [2] | Ki [3, 5] | Ki [4, 6] | Ki [4, 7] | Ki ([3]; summary of results, read-out: Ki value of the plasmin inhibition) | Compound |
| --- | --- | --- | --- | --- | --- | --- |
| > 1000 nM | > 1000 nM | < 10 nM | < 10 nM | < 1 nM |  | COC(=O)c1ccc(CS(=O)(=O)N[C@H](COC(C)(C)C)C(=O)N[C@@H](Cc2cccc(CN)c2)C(=O)NCc2ccc(C(=N)N)cc2)cc1 [compound 64] |
| < 1000 nM | > 1000 nM | < 100 nM | < 10 nM | < 1 nM |  | CC(C)(C)OC[C@@H](NS(=O)(=O)Cc1ccc(C(=O)O)cc1)C(=O)N[C@@H](Cc1cccc(CN)c1)C(=O)NCc1ccc(C(=N)N)cc1 [compound 65] |
| < 10 nM | < 1000 nM | < 10 nM | < 10 nM |  |  | N=C(N)c1ccc(CNC(=O)[C@H](CCCc2ccccc2)NC(=O)[C@@H](CCc2ccncc2)NS(=O)(=O)Cc2ccccc2)cc1 [compound 48] |
| > 1000 nM | > 1000 nM | < 100 nM | < 10 nM |  |  | N=C(N)c1ccc(CNC(=O)[C@H](Cc2cccc(CN)c2)NC(=O)[C@@H](CO)NS(=O)(=O)Cc2ccc(C(=O)O)cc2)cc1 [compound 70] |
| > 1000 nM | > 1000 nM | < 100 nM | < 10 nM |  |  | N=C(N)c1ccc(CNC(=O)[C@H](Cc2cccc(CN)c2)NC(=O)[C@@H](CO)NS(=O)(=O)Cc2ccccc2)cc1 [compound 68] |
|  |  |  | < 100 nM |  |  | N=C(N)c1ccc(CNC(=O)[C@H](Cc2cccc(CN)c2)NC(=O)[C@@H](CO)NS(=O)(=O)Cc2ccccc2)cc1 [compound 72] |
| < 100 nM | > 1000 nM | < 10 nM | < 10 nM |  |  | N=C(N)c1ccc(CNC(=O)[C@H](CCc2ccccc2)NC(=O)[C@@H](CCCc2cc[n+]([O-])cc2)NS(=O)(=O)Cc2cccc(C(=O)O)c2)cc1 [compound 54] |
| < 1000 nM | < 1000 nM | < 10 nM | < 10 nM |  |  | CC(C)(C)OC(=O)NCCCC[C@@H](NS(=O)(=O)Cc1ccccc1)C(=O)N[C@@H](CCc1ccncc1)C(=O)NCc1ccc(C(=N)N)cc1 [compound 62] |
| < 10 nM | < 100 nM | < 10 nM | < 10 nM |  |  | N=C(N)c1ccc(CNC(=O)[C@H](CCc2ccccc2)NC(=O)[C@@H](CCCc2cccnc2)NS(=O)(=O)Cc2cccc(C(=O)O)c2)cc1 [compound 52] |
| < 1000 nM | > 1000 nM | < 100 nM | < 10 nM |  |  | CC(C)(C)OC(=O)NC[C@@H](NS(=O)(=O)Cc1ccccc1)C(=O)N[C@@H](Cc1cccc(CN)c1)C(=O)NCc1ccc(C(=N)N)cc1 [compound 60] |
| < 10 nM | < 100 nM | < 10 nM | < 10 nM |  |  | N=C(N)c1ccc(CNC(=O)[C@H](CCc2ccccc2)NC(=O)[C@@H](CCCc2ccc[n+]([O-])c2)NS(=O)(=O)Cc2ccccc2)cc1 [compound 55] |
| < 10 nM | < 10 nM | < 10 nM | < 10 nM |  |  | N=C(N)c1ccc(CNC(=O)[C@H](CCc2ccccc2)NC(=O)[C@@H](CCCc2cccnc2)NS(=O)(=O)Cc2ccccc2)cc1 [compound 51] |
| < 10 nM | < 1000 nM | < 10 nM | < 10 nM |  |  | N=C(N)c1ccc(CNC(=O)[C@H](CCc2ccccc2)NC(=O)[C@@H](CCCc2ccc[n+]([O-])c2)NS(=O)(=O)Cc2cccc(C(=O)O)c2)cc1 [compound 56] |
| > 1000 nM |  |  |  |  |  | CC(C)(C)OC[C@@H](NS(=O)(=O)Cc1ccccc1)C(=O)N[C@@H](Cc1cccc(CN)c1)C(=O)NCc1ccc(C(=N)N)cc1 [compound 71] |
